Measurements as given in US6156757A, “1,2,3,4-tetrahydro-benzofuro[3,2-C]pyridine derivatives” (Janssen Pharmaceutica N.V., priority 1997, dated 2000).

How the values were obtained:
[1] = system: α2 -adrenoceptor; assay: Xylazine-induced loss of righting reflex in rats; assay type: in vivo; conditions: one hour before xylazine 15 mg/kg i.v., male rats, lowest tested dose at which at least 66% of animals showed no loss of righting reflex
Protocol: This test is based upon the fact that centrally acting α2 -adrenoceptor antagonists reverse the loss of righting reflex induced by an intravenous injection of the α2 agonist xylazine. One hour before injection of xylazine (15 mg/kg, i.v.), male rats (200-250 g) were pretreated with a test compound (er os (p.o.) or subcutaneously (s.c.)) or solvent.

[2] = target: T1, cloned human α2A receptors (Homo sapiens, UniProt P08913); assay: In vitro binding affinity for α2A receptors (3H-rauwolscine competition binding); conditions: at a test concentration of 10^-8 M or less; CHO cell expressing cloned human α2A receptors
T1 sequence (P08913 1-465): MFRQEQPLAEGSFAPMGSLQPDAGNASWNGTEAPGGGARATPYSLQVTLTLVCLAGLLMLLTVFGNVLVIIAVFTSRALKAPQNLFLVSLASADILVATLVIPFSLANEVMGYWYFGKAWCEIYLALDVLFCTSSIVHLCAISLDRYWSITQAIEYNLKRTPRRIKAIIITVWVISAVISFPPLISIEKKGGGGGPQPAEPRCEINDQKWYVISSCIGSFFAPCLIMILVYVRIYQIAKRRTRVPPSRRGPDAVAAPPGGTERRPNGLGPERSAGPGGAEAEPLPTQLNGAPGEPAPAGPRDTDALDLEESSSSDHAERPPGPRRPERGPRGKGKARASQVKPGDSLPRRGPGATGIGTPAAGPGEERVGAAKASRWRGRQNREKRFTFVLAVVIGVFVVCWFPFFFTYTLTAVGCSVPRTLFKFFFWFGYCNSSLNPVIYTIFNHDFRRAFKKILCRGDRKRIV
Protocol: The interaction of the compounds of formula (I) with α2 receptors was assessed in in vitro radioligand binding experiments.
In general, a low concentration of a radioligand with a high binding affinity for a particular receptor is incubated with a sample of a tissue preparation enriched in a particular receptor or with a preparation of cells expressing cloned human receptors in a buffered medium. During the incubation, the radioligand binds to the receptor. When equilibrium of binding is reached, the receptor bound radioactivity is separated from the non-bound radioactivity, and the receptor bound activity is counted. The interaction of the test compounds with the receptor is assessed in competition binding experiments. Various concentrations of the test compound are added to the incubation mixture containing the receptor preparation and the radioligand. Binding of the radioligand will be inhibited by the test compound in proportion to its binding affinity and its concentration.
The radioligand used for α2A receptor binding is ^3 H-rauwolscine and the receptor preparation used is the Chinese Hamster Ovary (CHO) cell expressing cloned human α2A receptors.

[3] = target: T2, cloned human α2C receptors (Homo sapiens, UniProt P18825); assay: In vitro binding affinity for α2C receptors (3H-rauwolscine competition binding); conditions: at a test concentration of 10^-8 M or less; CHO cell expressing cloned human α2C receptors
T2 construct: expressed in transfected cells; host or cells: CHO cells
T2 sequence (P18825 1-462): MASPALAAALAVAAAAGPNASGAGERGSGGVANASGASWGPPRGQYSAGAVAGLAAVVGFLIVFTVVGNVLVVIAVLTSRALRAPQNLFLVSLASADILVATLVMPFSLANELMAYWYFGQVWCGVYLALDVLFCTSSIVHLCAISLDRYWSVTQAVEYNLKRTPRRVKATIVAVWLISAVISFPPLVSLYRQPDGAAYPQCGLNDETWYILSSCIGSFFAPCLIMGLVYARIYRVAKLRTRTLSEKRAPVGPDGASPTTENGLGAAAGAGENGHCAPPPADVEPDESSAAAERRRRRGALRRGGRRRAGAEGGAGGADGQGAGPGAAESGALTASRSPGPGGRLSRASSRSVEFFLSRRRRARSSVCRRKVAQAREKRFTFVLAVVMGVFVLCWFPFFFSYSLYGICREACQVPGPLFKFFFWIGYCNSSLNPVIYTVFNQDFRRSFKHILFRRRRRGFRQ

Cc1nc2sccn2c(=O)c1CCCN1CCc2oc3ccccc3c2C1 [Compound 27]
LAD in mg/kg (lowest active dose for xylazine antagonism) ([1]; s.c.): 10.00 mg/kg

Cc1nc2ccccn2c(=O)c1CCN1CCc2oc3c([N+](=O)[O-])cccc3c2C1 [Compound 22]
LAD in mg/kg (lowest active dose for xylazine antagonism) ([1]; p.o.): 10.00 mg/kg

Cc1ccn2c(=O)c(CCN3CCc4oc5ccccc5c4C3)c(C)nc2c1 [Compound 36]
LAD in mg/kg (lowest active dose for xylazine antagonism) ([1]; s.c.): 0.63 mg/kg

c1ccc2sc(NCCCN3CCc4oc5ccccc5c4C3)nc2c1 [Compound 49]
inhibition [2]: > 50%
LAD in mg/kg (lowest active dose for xylazine antagonism) ([1]; s.c.): 10.00 mg/kg

Cc1nc2n(C)c(C)cn2c(=O)c1CCN1CCc2oc3ccccc3c2C1 [Compound 8]
inhibition at up to 0.01 µM [3]: > 50%

O=c1c(CCN2CCc3oc4ccccc4c3C2)c(Cc2ccccc2)nc2ccccn12 [Compound 29]
LAD in mg/kg (lowest active dose for xylazine antagonism) ([1]; s.c.): 10.00 mg/kg

Cc1nc2n(c(=O)c1CCN1CCc3oc4ccccc4c3C1)CCS2 [Compound 6]
LAD in mg/kg (lowest active dose for xylazine antagonism) ([1]; s.c.): 0.63 mg/kg

Cc1ccc(C(=O)N2CCC(CN3CCc4oc5ccccc5c4C3)CC2)cc1 [Compound 58, 4-[(3,4-dihydrobenzofuro[3,2-c]pyridin-2(1H)-yl)methyl]-1-(4-methylbenzoyl)piperidine]
LAD in mg/kg (lowest active dose for xylazine antagonism) ([1]; p.o.): 2.50 mg/kg
inhibition at up to 0.01 µM [3]: > 50%

c1ccc2sc(NCCCCCN3CCc4oc5ccccc5c4C3)nc2c1 [Compound 48]
inhibition [2]: > 50%
LAD in mg/kg (lowest active dose for xylazine antagonism) ([1]; s.c.): 10.00 mg/kg
inhibition at up to 0.01 µM [3]: > 50%

Cc1cc2nc(C)c(CCN3CCc4oc5ccccc5c4C3)c(=O)n2o1 [Compound 4]
LAD in mg/kg (lowest active dose for xylazine antagonism) ([1]; p.o.): 1.25 mg/kg

Cc1cc(C)n2c(=O)c(CCN3CCc4oc5ccccc5c4C3)c(C)nc2c1 [Compound 37]
LAD in mg/kg (lowest active dose for xylazine antagonism) ([1]; s.c.): 10.00 mg/kg

Cc1ccc2oc3c(c2c1)CN(CCc1c(C)nc2sccn2c1=O)CC3 [Compound 19]
LAD in mg/kg (lowest active dose for xylazine antagonism) ([1]; s.c.): 10.00 mg/kg

Cc1nc2n(c(=O)c1CCN1CCc3oc4ccccc4c3C1)CCCS2 [Compound 28]
LAD in mg/kg (lowest active dose for xylazine antagonism) ([1]; s.c.): 0.63 mg/kg

Cc1nc2ccccn2c(=O)c1CCN1CCc2oc3ccc(Cl)cc3c2C1 [Compound 24]
LAD in mg/kg (lowest active dose for xylazine antagonism) ([1]; p.o.): 10.00 mg/kg

Cc1nc2ccccn2c(=O)c1CCN1CCc2oc3c(Cl)cccc3c2C1 [Compound 23]
LAD in mg/kg (lowest active dose for xylazine antagonism) ([1]; s.c.): 2.50 mg/kg
inhibition at up to 0.01 µM [3]: > 50%

c1ccc2sc(NCCN3CCc4oc5ccccc5c4C3)nc2c1 [Compound 51, N-2-benzothiazole-3,4-dihydrobenzofuro[3,2-c]pyridin-2(1H)-ethanamine (E)-2-butenedioate (1:1)]
LAD in mg/kg (lowest active dose for xylazine antagonism) ([1]; s.c.): 10.00 mg/kg

Cc1nc2sccn2c(=O)c1CCN1CCc2oc3ccc(F)cc3c2C1 [Compound 16]
LAD in mg/kg (lowest active dose for xylazine antagonism) ([1]; p.o.): 10.00 mg/kg

O=c1oc2ccccc2n1CCCN1CCc2oc3ccccc3c2C1 [Compound 60]
inhibition [2]: > 50%
LAD in mg/kg (lowest active dose for xylazine antagonism) ([1]; p.o.): 10.00 mg/kg

Cc1nc2ccc(Cl)cn2c(=O)c1CCN1CCc2oc3ccccc3c2C1 [Compound 32]
LAD in mg/kg (lowest active dose for xylazine antagonism) ([1]; s.c.): 0.04 mg/kg

Cc1ccc(C(=O)N2CCCC(CN3CCc4oc5ccccc5c4C3)C2)cc1 (stereo not shown) [Compound 57]
LAD in mg/kg (lowest active dose for xylazine antagonism) ([1]; p.o.): 10.00 mg/kg

Cc1nc2n(c(=O)c1CCN1CCc3oc4ccc(F)cc4c3C1)CCCC2 [Compound 18]
inhibition [2]: > 50%
LAD in mg/kg (lowest active dose for xylazine antagonism) ([1]; s.c.): 10.00 mg/kg

Cc1nc2ccccn2c(=O)c1CCCN1CCc2oc3ccccc3c2C1 [Compound 26]
LAD in mg/kg (lowest active dose for xylazine antagonism) ([1]; s.c.): 10.00 mg/kg

Cc1nc2ccccn2c(=O)c1CCN1CCc2oc3ccccc3c2C1 [Compound 3, 3-[2-[3,4-dihydrobenzofuro[3,2-c]pyridin-2(1H)-yl]ethyl]-2-methyl-4H-pyrido[1,2-a]pyrimidin-4-one]
LAD in mg/kg (lowest active dose for xylazine antagonism) ([1]; p.o.): 0.31 mg/kg
LAD in mg/kg (lowest active dose for xylazine antagonism) ([1]; s.c.): 0.08 mg/kg

Cc1ccc2nc(C)c(CCN3CCc4oc5ccccc5c4C3)c(=O)n2c1 [Compound 34, 3-[2-[3,4-dihydrobenzofuro[3,2-c]pyridin-2(1H)-yl]ethyl]-2,7-dimethyl-4H-pyrido-[1,2-a]pyrimidin-4-one]
inhibition [2]: > 50%
LAD in mg/kg (lowest active dose for xylazine antagonism) ([1]; s.c.): 0.16 mg/kg
inhibition at up to 0.01 µM [3]: > 50%

Cc1nc2n(c(=O)c1CCN1CCc3oc4ccccc4c3C1)CCCC2 [Compound 2]
LAD in mg/kg (lowest active dose for xylazine antagonism) ([1]; p.o.): 1.25 mg/kg

c1ccc2sc(NCCCCN3CCc4oc5ccccc5c4C3)nc2c1 [Compound 50]
LAD in mg/kg (lowest active dose for xylazine antagonism) ([1]; s.c.): 10.00 mg/kg
inhibition at up to 0.01 µM [3]: > 50%

Cc1nc2scc(C)n2c(=O)c1CCN1CCc2oc3ccccc3c2C1 [Compound 5, 6-[[3,4-dihydrobenzofuro[3,2-c]pyridin-2(lH)-yl]ethyl]-3,7-dimethyl-5H-thiazolo-[3,2-a]pyrimidin-5-one]
LAD in mg/kg (lowest active dose for xylazine antagonism) ([1]; s.c.): 0.63 mg/kg

O=c1c(CCN2CCc3oc4ccccc4c3C2)c(Cc2ccccc2)nc2ccccn12 [Compound 14]
inhibition at up to 0.01 µM [3]: > 50%

Cc1nc2ccccn2c(=O)c1CCN1CCc2oc3ccc(F)cc3c2C1 [Compound 17]
inhibition [2]: > 50%
LAD in mg/kg (lowest active dose for xylazine antagonism) ([1]; p.o.): 10.00 mg/kg
LAD in mg/kg (lowest active dose for xylazine antagonism) ([1]; s.c.): 10.00 mg/kg

Cc1nc2sccn2c(=O)c1CCN1CCc2oc3ccccc3c2C1 [Compound 1, 6-[[3,4-dihydrobenzofuro[3,2-c]pyridin-2(1H)-yl]ethyl]-7-methyl-5H-thiazolo-[3,2-a]pyrimidin-5-one]
LAD in mg/kg (lowest active dose for xylazine antagonism) ([1]; s.c.): 0.63 mg/kg

Cc1nc2c(O)cccn2c(=O)c1CCN1CCc2oc3ccccc3c2C1 [Compound 35]
LAD in mg/kg (lowest active dose for xylazine antagonism) ([1]; s.c.): 10.00 mg/kg

Cc1nc2n(c(=O)c1CCN1CCc3oc4ccccc4c3C1)CCCC2C (stereo not shown) [Compound 25]
LAD in mg/kg (lowest active dose for xylazine antagonism) ([1]; p.o.): 10.00 mg/kg

Cn1c(=O)c2c(ncn2CCN2CCc3oc4ccccc4c3C2)n(C)c1=O [Compound 59]
LAD in mg/kg (lowest active dose for xylazine antagonism) ([1]; s.c.): 10.00 mg/kg

CSc1nc(C)c(CCN2CCc3oc4ccccc4c3C2)c(=O)n1C [Compound 55]
inhibition [2]: > 50%
LAD in mg/kg (lowest active dose for xylazine antagonism) ([1]; p.o.): 10.00 mg/kg
inhibition at up to 0.01 µM [3]: > 50%

Cc1nc2c(Cl)cc(Cl)cn2c(=O)c1CCN1CCc2oc3ccccc3c2C1 [Compound 40]
LAD in mg/kg (lowest active dose for xylazine antagonism) ([1]; p.o.): 10.00 mg/kg

COc1cccn2c(=O)c(CCN3CCc4oc5ccccc5c4C3)c(C)nc12 [Compound 65, 3-[2-[3,4-dihydrobenzofuro[3,2-c]-pyridin-2(1H)-yl]ethyl]-9-methoxy-2-methyl-4H-pyrido[1,2-a]pyrimidin-4-one]
inhibition [2]: > 50%
LAD in mg/kg (lowest active dose for xylazine antagonism) ([1]; s.c.): 0.63 mg/kg
inhibition at up to 0.01 µM [3]: > 50%

Cc1nc2cccc(C)n2c(=O)c1CCN1CCc2oc3ccccc3c2C1 [Compound 39]
LAD in mg/kg (lowest active dose for xylazine antagonism) ([1]; s.c.): 0.63 mg/kg

Cc1nc2n(c(=O)c1CCN1CCc3oc4ccccc4c3C1)CCCC2C (stereo not shown) [Compound 13]
inhibition at up to 0.01 µM [3]: > 50%
